Our source for the EC50 values is patent US9133115B2 (ACHILLION PHARMACEUTICALS, INC., priority 2008, dated 2015).

The test system of the test is HCV replicon. Description: HCV replicon replication assay (NPT ELISA) in Huh-7 replicon-containing cells. Conditions: Hepatitis C virus, 72 h; HCV replicon in Huh-7 cells, three days incubation; read-out: EC50. It counts as cell-based. Here is the method: Compounds claimed herein are tested for the ability to inhibit viral replication of the Hepatitis C replicon in cultured cells in which the HCV replicon construct has been incorporated. The HCV replicon system was described by Bartenschlager, et. al (Science, 285, pp. 110-113 (1999)). The replicon system is predictive of in vivo anti-HCV activity; compounds that are active in humans uniformly evidence activity in the replicon assay.
In this assay HCV replicon containing cells are treated with different concentrations of the test compound to ascertain the ability of the test compound to suppress replication of the HCV replicon. As a positive control, HCV replicon-containing cells are treated with different concentrations of interferon alpha, a known inhibitor of HCV replication. The replicon assay system includes Neomycin Phosphotransferase (NPT) as a component of the replicon itself in order to detect the transcription of replicon gene products in the host cell. Cells in which the HCV replicon is actively replicating have high levels of NPT; the level of NPT is proportional to HCV replication. […] The NPT level of each sample is measured using a captured ELISA.
A protocol for testing compounds for the ability to inhibit viral replication of the Hepatitis C replicon cultured cells in which the replicon construct has been incorporated, follows.
The HCV replicon contains, 5′-3′, the HCV-IRES, the neomycin phosphotransferase (neo) gene, the IRES of encephalomyocarditis virus, which directs translation of HCV sequences NS3 to NS5B, and the 3′-NTR. The sequence of the HCV replicon has been deposited in GenBank (Accession no. AJ242652).
The replicon is transfected into Huh-7 cells using standard methods such as electroporation.
The equipment and materials include, but are not limited to, Huh-7 HCV replicon-containing cells, maintenance media (DMEM (Dulbecco's modified Eagle media) supplemented with 10% FBS, L-glutamine, non-essential amino acids, penicillin (100 units/ml), streptomycin (100 micrograms/ml), and 500 micrograms/ml of Geneticin (G418), screening media (DMEM supplemented with 10% FBS, L-glutamine, non-essential amino acids, penicillin (100 units/ml) and streptomycin (100 micrograms/ml)), 96 well tissue culture plates (flat bottom), 96 well plates (U bottom for drug dilution), Interferon alpha for positive control, fixation reagent (such as methanol: acetone), primary antibody (rabbit anti-NPTII), secondary antibody: Eu-N1 l, and enhancement solution.
HCV replicon-containing cells support high levels of viral RNA replicon replication when their density is suitable. Over-confluency causes decreased viral RNA replication. Therefore, cells must be kept growing in log phase in the presence of 500 micrograms/ml of G418. Generally, cells should be passed twice a week at 1: 4-6 dilution. Cell maintenance is conducted as follows:
HCV replicon-containing cells are examined under a microscope to ensure that cells growing well. Cells are rinsed once with PBS and 2 ml trypsin is added. The cell/trypsin mixture is incubated at 37° C. in a CO2 incubator for 3-5 minutes. After incubation 10 ml of complete media is added to stop the trypsinization reaction. Cells are blown gently, put into a 15 ml tube, and spun at 1200 rpm for 4 minutes. The trypsin/medium solution is removed. Medium (5 ml) is added and the cells are mixed carefully. The cells are counted.
The cells are then seeded onto 96-well plates at a density of 6000-7500 cells/100 microliters/well (6-7.5×10^5 cells/10 ml/plate). The plates are then incubated at 37° C. in a 5% CO2 incubator.
Cells are examined under a microscope approximated 24 hours after seeding and prior to adding drugs. If counting and dilution were performed correctly, cells are 60-70% confluent and nearly all cells should attach and spread evenly in the well.
HCV replicon-containing cells are rinsed with once PBS once; 2 mls of trypsin are then added. Cells are incubated at 37° C. in a 5% CO2 incubator for 3-5 minutes. […]
The EC50 is the concentration at which the effect is half-maximal. For `C=C[C@@H]1C[C@]1(NC(=O)[C@@H]1C[C@@H](OC(=O)Nc2ccc(-c3ccccc3)cc2)CN1C(=O)[C@@H](CC(=O)N1CCCCC1)C(C)(C)C)C(=O)NS(=O)(=O)C1CC1` [Compound 61, (3R,5S)-1-((S)-2-tert-butyl-4-oxo-4-(piperidin-1-yl)butanoyl)-5-((1R,2S)-1-(cyclopropyl-sulfonylcarbamoyl)-2-vinylcyclopropyl-carbamoyl)pyrrolidin-3-yl biphenyl-4-ylcarbamate], the 50% effective concentration (EC50) is 1000 to 10000 nM.

For `C=C[C@@H]1C[C@]1(NC(=O)[C@@H]1C[C@@H](Oc2cc(-c3ccccc3)nc3cc(OC)ccc23)CN1C(=O)[C@@H](CC(=O)N1CCCCC1)C(C)(C)C)C(=O)NS(=O)(=O)c1ccccc1` [Compound 62, (2S,4R)-1-((S)-2-tert-butyl-4-oxo-4-(piperidin-1-yl)butanoyl)-4-(7-methoxy-2-phenylquinolin-4-yloxy)-N-((1R,2S)-1-(phenylsulfonyl-carbamoyl)-2-vinyl-cyclopropyl)pyr-rolidine-2-carboxamide], the EC50 was below 1000 nM. The figure for `C=C[C@@H]1C[C@]1(NC(=O)[C@@H]1C[C@@H](Oc2cc(-c3ccccc3)nc3cc(OC)ccc23)CN1C(=O)[C@@H](CC(=O)N1CCCCC1)C(C)(C)C)C(=O)NS(=O)(=O)C(C)C` [Compound 63, (2S,4R)-1-((S)-2-tert-butyl-4-oxo-4-(piperidin-1-yl)butanoyl)-N-((1R,2S)-1-(isopropylsulfonyl-carbamoyl)-2-vinylcyclopropyl)-4-(7-methoxy-2-phenylquinolin-4-yloxy)pyrrolidine-2-carboxamide] is below 1000 nM; for `C=C[C@@H]1C[C@]1(NC(=O)[C@@H]1C[C@@H](Oc2cc(-c3ccccc3)nc3cc(OC)ccc23)CN1C(=O)[C@@H](CC(=O)N1CCCCC1)C(C)(C)C)C(=O)NS(=O)(=O)Cc1ccccc1` [Compound 64, (2S,4R)-N-((1R,2S)-1-(benzylsulfonyl-carbamoyl)-2-vinylcyclopropyl)-1-((S)-2-tert-butyl-4-oxo-4-(piperidin-1-yl)butanoyl)-4-(7-methoxy-2-phenylquinolin-4-yloxy)pyrrolidine-2-carboxamide] it is 1000 to 10000 nM. As to `C=C[C@@H]1C[C@]1(NC(=O)[C@@H]1C[C@@H](Oc2cc(-c3ccccc3)nc3cc(OC)ccc23)CN1C(=O)[C@@H](CC(=O)N1CCCCC1)C(C)(C)C)C(=O)NS(=O)(=O)C(C)(C)C` [Compound 65, (2S,4R)-1-((S)-2-tert-butyl-4-oxo-4-(piperidin-1-yl)butanoyl)-N-((1R,2S)-1-(tert-butylsulfonyl-carbamoyl)-2-vinylcyclopropyl)-4-(7-methoxy-2-phenylquinolin-4-yloxy)pyrrolidine-2-carboxamide], the EC50 was in the range of 1000 to 10000 nM. The figure for `C=C[C@@H]1C[C@]1(NC(=O)[C@@H]1C[C@@H](Oc2cc(-c3ccccc3)nc3cc(OC)ccc23)CN1C(=O)[C@@H](CC(=O)N1CCCCC1)C(C)(C)C)C(=O)NS(=O)(=O)C(F)(F)F` [Compound 66, (2S,4R)-1-((S)-2-tert-butyl-4-oxo-4-(piperidin-1-yl)butanoyl)-4-(7-methoxy-2-phenylquinolin-4-yloxy)-N-((1R,2S)-1-(trifluoromethyl-sulfonylcarbamoyl)-2-vinylcyclo-propyl)pyrrolidine-2-carboxamide] is 1000 to 10000 nM; for `C=C[C@@H]1C[C@]1(NC(=O)[C@@H]1C[C@@H](Oc2cc(-c3ccccc3)nc3cc(OC)ccc23)CN1C(=O)[C@@H](CC(=O)N1CCCCC1)C(C)(C)C)C(=O)NS(=O)(=O)c1ccc(Cl)cc1` [Compound 67, (2S,4R)-1-((S)-2-tert-butyl-4-oxo-4-(piperidin-1-yl)butanoyl)-N-((1R,2S)-1-(4-chlorophenyl-sulfonylcarbamoyl)-2-vinylcyclopropyl)-4-(7-methoxy-2-phenylquinolin-4-yloxy)pyrrolidine-2-carboxamide] it is below 1000 nM. Regarding `C=C[C@@H]1C[C@]1(NC(=O)[C@@H]1C[C@@H](Oc2cc(-c3ccccc3)nc3cc(OC)ccc23)CN1C(=O)[C@@H](CC(=O)N1CCCCC1)C(C)(C)C)C(=O)NS(C)(=O)=O` [Compound 68, (2S,4R)-1-((S)-2-tert-butyl-4-oxo-4-(piperidin-1-yl)butanoyl)-4-(7-methoxy-2-phenylquinolin-4-yloxy)-N-((1R,2S)-1-(methylsulfonyl-carbamoyl)-2-vinyl-cyclopropyl)pyr-rolidine-2-carboxamide], the EC50 was below 1000 nM. The figure for `C=C[C@@H]1C[C@]1(NC(=O)[C@@H]1C[C@@H](Oc2cc(-c3ccccc3)nc3cc(OC)ccc23)CN1C(=O)[C@@H](CC(=O)N1CCCCC1)C(C)(C)C)C(=O)NS(=O)(=O)c1ccc(C)cc1` [Compound 69, (2S,4R)-1-((S)-2-tert-butyl-4-oxo-4-(piperidin-1-yl)butanoyl)-4-(7-methoxy-2-phenylquinolin-4-yloxy)-N-((1R,2S)-1-(p-tolylsulfonyl-carbamoyl)-2-vinyl-cyclopropyl)pyr-rolidine-2-carboxamide] is below 1000 nM; for `C=C[C@@H]1C[C@]1(NC(=O)[C@@H]1C[C@@H](Oc2nc(-c3ccccc3)cc3cc(OC)ccc23)CN1C(=O)[C@@H](CC(=O)N1CCCCC1)C(C)(C)C)C(=O)NS(=O)(=O)C1CC1` [Compound 70, (2S,4R)-1-((S)-2-tert-butyl-4-oxo-4-(piperidin-1-yl)butanoyl)-N-((1R,2S)-1-(cyclo-propylsulfonyl-carbamoyl)-2-vinylcyclopropyl)-4-(6-methoxy-3-phenylisoquinolin-1-yloxy)pyrrolidine-2-carboxamide] it is below 1000 nM; for `C=C[C@@H]1C[C@]1(NC(=O)[C@@H]1C[C@@H](Oc2nc(-c3ccccc3)cc3cc(OC)ccc23)CN1C(=O)[C@@H](CC(=O)N1CCOCC1)C(C)(C)C)C(=O)NS(=O)(=O)C1CC1` [Compound 71, (2S,4R)-1-((S)-2-tert-butyl-4-morpholino-4-oxobutanoyl)-N-((1R,2S)-1-(cyclopropylsulfonyl-carbamoyl)-2-vinylcyclopropyl)-4-(6-methoxy-3-phenylisoquinolin-1-yloxy)pyrrolidine-2-carboxamide] it is below 1000 nM. In the case of `C=C[C@@H]1C[C@]1(NC(=O)[C@@H]1C[C@@H](Oc2cc(-c3ccccc3)nc3cc(OC)ccc23)CN1C(=O)[C@@H](CC(=O)N1CCCCC1)C(C)(C)C)C(=O)NS(=O)(=O)c1cccs1` [Compound 72, (2S,4R)-1-((S)-2-tert-butyl-4-oxo-4-(piperidin-1-yl)butanoyl)-4-(7-methoxy-2-phenylquinolin-4-yloxy)-N-((1R,2S)-1-(thiophen-2-ylsulfonylcarbamoyl)-2-vinylcyclopropyl)pyr-rolidine-2-carboxamide], the EC50 is below 1000 nM. As to `C=C[C@@H]1C[C@]1(NC(=O)[C@@H]1C[C@@H](Oc2cc(-c3ccccc3)nc3cc(OC)ccc23)CN1C(=O)[C@@H](CC(=O)N1CCCCC1)C(C)(C)C)C(=O)NS(=O)(=O)c1cn(C)cn1` [Compound 73, (2S,4R)-1-((S)-2-tert-butyl-4-oxo-4-(piperidin-1-yl)butanoyl)-4-(7-methoxy-2-phenylquinolin-4-yloxy)-N-((1R,2S)-1-(1-methyl-1H-imidazol-4-ylsulfonylcarbamoyl)-2-vinylcycloprop-yl)pyrrolidine-2-carboxamide], the concentration for a half-maximal effect (EC50) is 1000 to 10000 nM.

Take `C=C[C@@H]1C[C@]1(NC(=O)[C@@H]1C[C@@H](Oc2cc(-c3ccccc3)nc3cc(OC)ccc23)CN1C(=O)[C@@H](CC(=O)N1CCC2CCCCC2C1)C(C)(C)C)C(=O)NS(=O)(=O)C1CC1` (stereo partly drawn) [Compound 74, (2S,4R)-1-((2S)-2-tert-butyl-4-(octa-hydroisoquinolin-2(1H)-yl)-4-oxobutanoyl)-N-((1R,2S)-1-(cyclo-propylsulfonyl-carbamoyl)-2-vinylcycloprop-yl)-4-(7-methoxy-2-phenylquinolin-4-yloxy)pyrrolidine-2-carboxamide]: the 50% effective concentration (EC50) is below 1000 nM.
